Source: patent US20060069157A1, “Method of ameliorating or abrogating the effects of a neurodegenerative disorder, such as Huntington's disease, by sodium butyrate chemotherapy” (U.S. DEPARTMENT OF VETERANS AFFAIRS, priority 2004, published 2006)
“Also recorded” adds a separate entry of the source.

What was measured:
[1] = test system: R6/2 transgenic mouse model of HD; experiment: Neuropathological evaluation (brain weight, gross atrophy, striatal neuron area) at 90 days; format: in vivo
Protocol: Neuropathological Evaluation of Sodium Butyrate Treatment: Beginning at 21 days, R6/2 transgenic mice and wild-type littermate control mice were treated daily with the most optimal dose of sodium butyrate (1.2 g/kg), as determined by survival studies, or PBS intraperitoneal injections. Groups of 10 animals from each treatment paradigm were deeply anesthetized and transcardially perfused with 4% buffered paraformaldehyde at 90 days of age. Forty mice were used for neuropathological analysis, as previously described (Ferrante et al., 2002). Serially cut tissue sections were stained for Nissl substance and immunostained for huntingtin (monoclonal huntingtin antibody, 1:1,000 dilution, Chemicon International Inc.) and for acetylated histone 3 and histone 4 (dilution, 1:1,000, Upstate Biotechnology, Lake Placid, N.Y.), using a previously reported conjugated secondary antibody method in murine brain tissue samples (Ferrante et al., 2002). Specificity for the antisera used in this study was examined in each immunochemical experiment to assist with the interpretation of the results. Preabsorption with excess target proteins, omission of the primary antibodies, and omission of secondary antibodies were performed to determine the amount of background generated from the detection assay.
Stereology/Quantitation: Serial-cut coronal tissue-sections beginning from the most rostral segment of the neostriatum to the level of the anterior commissure (Inter aural 5.34 mm/Bregma 1.54 mm to Inter aural 3.7 mm/Bregma −0.10 mm), were used for huntingtin aggregate analysis. Unbiased stereological counts of huntingtin-positive aggregates ([…]) were obtained from the neostriatum in 10 mice each from sodium butyrate-treated (1.2 g/kg) and PBS-treated R6/2 mice at 90 days using Neurolucida Stereo Investigator software (Microbrightfield, Colchester, Vt.). The total areas of the rostral neostriatum were defined in serial sections in which counting frames were randomly sampled. The optical dissector method was employed estimating the number of huntingtin-positive aggregates. Striatal neuron areas were analyzed by microscopic videocapture using a Windows-based image analysis system for area measurement (Optimas, Bioscan Incorporated, Edmonds, Wash.). The software automatically identifies and measures profiles. All computer identified cell profiles were manually verified as neurons and exported to Microsoft Excel. Cross-sectional areas were analyzed using Statview.

[2] = test system: acetylated histone H3 and acetylated histone H4; experiment: Histone acetylation assay (Western blot, whole brain); format: in vivo, mouse
Protocol: Histone Acetylation Assay: At 42 days, groups of 10 R6/2 mice and littermate wild-type control mice were treated with daily with the most optimal dose of sodium butyrate (1.2 g/kg), as determined by survival studies, or PBS via intraperitoneal injections for two weeks. The mice were euthanized at 56 days of age and the brains rapidly frozen and stored at −80 βC. Histone acetylation was determined, using a previously reported Western analysis method (Warrel et al., 1998). Histones were isolated from sodium butyrate treated and untreated whole brains. Western blot analysis for histone acetylation was performed using acetylated histone H3 and acetylated histone H4 antibodies (Upstate Biotechnology, Lake Placid, N.Y.). Protein levels were determined via Coomassie Protein Assay (Pierce, Rockford, Ill.). Each of the sample measurements was carried out twice, with the investigator performing the assays (JKK) blind to genotype and treatment group.

[3] = test system: Sp1; experiment: Sp1 acetylation immunoprecipitation and Western blot analysis; format: in vivo, mouse; conditions: 1.2 g/kg/day i.p. for two weeks
Protocol: Sp1 Acetylation Immunoprecipitation and Western Blot Analysis: At 42 days of age, groups (n=6) of R6/2 mice were treated with daily 1.2 g/kg sodium butyrate or PBS intraperitoneal injections for two weeks. The mice were euthanized and tissue lysates were obtained by homogenizing each brain sample with 100 mM Tris (pH 7.4) buffer containing 1% Triton-X 100, 150 mM NaCl, 1 mM sodium orthovanadate, 5 mM sodium fluoride, 3 mM PMSF, 3 mM DTT, 0.5 Êg/ml leupeptin, and 10 Êg/ml aprotinin. To monitor Sp1 acetylation in vivo, tissue lysates were precleared by the addition of 30 Êl of protein A-sepharose (50% v/v slurry) for 1 hr at 4° C. and incubated with 2 Êg of Sp1 antibody for 2-4 hr. Twenty-five Êl of protein A-sepharose was added to lysates and left for 1 hr at […]. All beads were collected by centrifugation and washed twice with lysis buffer and once with PBS. The samples were boiled and divided into equal aliquots before separation on SDS-PAGE. Samples were electrophoresed under reducing conditions on 8% polyacrylamide gels. Proteins were then transferred to nitrocellulose membrane (BioRad, Hercules, Calif.). […] Proteins immunoreactive to acetyl lysine were detected by using an acetyl-lysine specific antibodies (Upstate Biotechnology, Lake Placid, N.Y., 1:1000 dilution). Immunoreactive proteins were detected according to an enhanced chemiluminescent protocol (Amersham, Piscataway, N.J.). […]

[4] = test system: huntingtin transgene; experiment: Transgene expression (Western blot, whole brain, 1C2 antibody); format: in vivo, mouse; conditions: 1.2 g/kg/d; R6/2 whole brain; vs PBS-treated R6/2
Protocol: Transgene Expression: Transgene expression was determined in whole brain by Western blot analysis of groups (n=6) of sodium butyrate-treated (1.2 g/kg/d) and untreated R6/2 mice. Brain tissue was homogenized in a protease inhibitor cocktail buffer (Complete, Roche). Twenty Êg of protein (supernatant fraction) was resolved on 10% SDS-polyacrylamide gel (BioRad), transferred to PVDF membrane (BioRad), and probed with 1C2 antibody (Euromedex, France) specific for regions of expanded huntingtin, using a horseradish conjugated anti-rabbit secondary antibody, followed by chemiluminescent detection (Western Lightening™, New England Nuclear), and run with parallel blots probed against (-tubulin to normalize for gel loading.

CCCC(=O)[O-].[Na+] [sodium butyrate]
brain weight loss ([1]; 1.2 g/kg/d i.p. from 21 days, vs wild type littermates (unsupplemented R6/2: 18.9%)): 5.6% | striatal neuron area ([1]; 1.2 g/kg/d i.p., Wt 138.9, PBS-treated R6/2 57.1, p<0.01 vs PBS): 113.5 ± 14.2 _m2 | reduction of striatal neuron atrophy ([1]; 1.2 g/kg/d i.p., vs PBS-treated R6/2): one fold | gross brain atrophy, ventricular hypertrophy ([1]; 1.2 g/kg/d i.p., vs PBS-treated/untreated R6/2): reduced gross brain atrophy and ventricular enlargement; also recorded: ameliorated these gross neuropathological sequelae | difference in increased acetylation of H3 and H4 between doses ([2]; 600 mg/kg/d vs 1.2 g/kg/d): did not observe any difference | H3 and H4 acetylation (Western blot) ([2]; 1.2 g/kg/d i.p. for two weeks from 42 days, R6/2 brain at 56 days): marked increase | basal levels of Sp1 ([3]; R6/2 mice): did not change | Sp1 acetylation levels in brain ([3]; R6/2 mice vs PBS): increased | huntingtin transprotein expression-levels [4]: no differences
